# From PubChem BioAssay (NCI)
#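 Cultured in 96-well plates, cells were exposed to test compound for 48 hours across five concentrations. At the TGI there is no net growth.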
# What was measured:
# Test in all cases: growth of human tumour cells (NCI), 48 h
# OVCAR-4 ovarian = test system: OVCAR-4 ovarian
# SF-268 CNS = test system: SF-268 CNS
# KM12 colon = test system: KM12 colon
# A498 renal = test system: A498 renal
# NCI-H23 lung = test system: NCI-H23 lung
# SK-OV-3 ovarian = test system: SK-OV-3 ovarian
# UACC-62 melanoma = test system: UACC-62 melanoma
# MALME-3M melanoma = test system: MALME-3M melanoma
# LOX IMVI melanoma = test system: LOX IMVI melanoma
# M14 melanoma = test system: M14 melanoma
# MDA-MB-435 = test system: MDA-MB-435
# SK-MEL-5 melanoma = test system: SK-MEL-5 melanoma
# SR leukemia = test system: SR leukemia
# HL-60(TB) leukemia = test system: HL-60(TB) leukemia
# MDA-N = test system: MDA-N
# SF-539 CNS = test system: SF-539 CNS
# EKVX NSCLC = test system: EKVX NSCLC
# UACC-257 melanoma = test system: UACC-257 melanoma
# BT-549 breast = test system: BT-549 breast
# KM20L2 colon = test system: KM20L2 colon
SMILES,TGI (OVCAR-4 ovarian),TGI (SF-268 CNS),TGI (KM12 colon),TGI (A498 renal),TGI (NCI-H23 lung),TGI (SK-OV-3 ovarian),TGI (UACC-62 melanoma),TGI (MALME-3M melanoma),TGI (LOX IMVI melanoma),TGI (M14 melanoma),TGI (MDA-MB-435),TGI (SK-MEL-5 melanoma),TGI (SR leukemia),TGI (HL-60(TB) leukemia),TGI (MDA-N),TGI (SF-539 CNS),TGI (EKVX NSCLC),TGI (UACC-257 melanoma),TGI (BT-549 breast),TGI (KM20L2 colon)
CC(=O)NC1C(O)C(O)C(CO)OC1n1nc(SCc2ccccc2)c(=O)[nH]c1=O (centres undefined),> 100 µM,> 100 µM,> 100 µM,> 100 µM,> 100 µM,> 100 µM,> 100 µM,> 100 µM,> 100 µM,> 100 µM,> 100 µM,> 100 µM,> 100 µM,> 100 µM,> 100 µM,> 100 µM,> 100 µM,> 100 µM,> 100 µM,–
C=C1CC(COc2ccc3c(C)c(Cl)c(=O)oc3c2)(c2ccccc2)OC1=O (centres undefined),3.67 µM,19 µM,6.69 µM,25.7 µM,3.84 µM,16.2 µM,3.53 µM,3.75 µM,2.82 µM,2.24 µM,7.6 µM,3.63 µM,> 21.5 µM,1.42 µM,5.48 µM,7.34 µM,31.2 µM,4.01 µM,2.87 µM,–
Nc1nc(Cl)cc(NCC2(CO)CC(CCCc3ccccc3)C2)n1 (centres undefined),> 100 µM,> 100 µM,> 100 µM,> 100 µM,> 100 µM,> 100 µM,> 100 µM,> 100 µM,> 100 µM,> 100 µM,> 100 µM,> 100 µM,> 100 µM,> 100 µM,> 100 µM,> 100 µM,> 100 µM,> 93.7 µM,> 100 µM,–
CCCCCCCCCCCCCCCCCCNc1ccn(C2OC(COP(=O)(O)OCC(COP(=O)(O)OCC3OC(n4cc(C)c(=O)[nH]c4=O)CC3N=[N+]=[N-])OCCCCCCCCCCCCCCCCCC)C(O)C2O)c(=O)n1 (centres undefined),> 100 µM,> 100 µM,> 100 µM,> 100 µM,> 100 µM,> 100 µM,> 100 µM,> 100 µM,54.2 µM,> 100 µM,> 100 µM,> 100 µM,> 100 µM,> 100 µM,> 100 µM,88.7 µM,> 100 µM,> 100 µM,> 100 µM,–
CN(C)CCNC(=O)c1ccccc1Nc1c(Cl)cccc1Cl,29.7 µM,31.5 µM,–,–,30.9 µM,26.8 µM,31.4 µM,–,25.8 µM,31 µM,–,9.96 µM,30.9 µM,27 µM,–,26.7 µM,21.6 µM,18.5 µM,–,23.4 µM
Cc1c2ccccc2c(CSC(=N)N)c2ccccc12,0.514 µM,1.33 µM,0.545 µM,0.4 µM,0.272 µM,2.67 µM,0.408 µM,0.356 µM,1.06 µM,0.537 µM,0.44 µM,0.331 µM,0.0673 µM,0.343 µM,0.457 µM,0.419 µM,1.33 µM,0.406 µM,3.72 µM,–
COc1ccc2c(c1)CC[C@@H]1C2CC[C@]2(C)C(=N\O)/C(=N/O)CC12 (some centres undefined),–,37.8 µM,42.7 µM,34.2 µM,23.1 µM,32.6 µM,26.6 µM,32.5 µM,6.11 µM,32.9 µM,–,25.7 µM,–,35.7 µM,–,35.1 µM,38.9 µM,32.9 µM,–,18.5 µM
COc1cc(C(=O)O)cc2c1[nH]c1ccccc12,> 25 µM,> 25 µM,> 25 µM,–,–,> 25 µM,> 25 µM,> 25 µM,> 25 µM,> 25 µM,–,> 25 µM,> 25 µM,> 25 µM,–,> 25 µM,–,–,–,> 25 µM
CC(=O)N(C(=O)CC(=O)NNCc1ccccc1Cl)c1ccc(Cl)cc1,> 10 µM,> 10 µM,> 10 µM,> 10 µM,> 10 µM,> 10 µM,> 10 µM,> 10 µM,> 10 µM,> 10 µM,> 10 µM,> 10 µM,> 10 µM,> 10 µM,> 10 µM,> 10 µM,> 10 µM,> 10 µM,> 10 µM,–
COc1ccc2c(c1)OCC1=C2Oc2ccccc2C1,> 100 µM,> 100 µM,> 100 µM,> 100 µM,> 100 µM,> 100 µM,> 100 µM,> 100 µM,55.9 µM,> 100 µM,84.2 µM,28.3 µM,> 100 µM,> 100 µM,71.1 µM,95.7 µM,> 100 µM,87.6 µM,71.5 µM,–
O=[N+]([O-])c1ccc(CSc2c3ccccc3nc3ccccc23)cc1,31.1 µM,22.8 µM,16.2 µM,58.8 µM,25.5 µM,41.4 µM,29.3 µM,6.04 µM,10.6 µM,16.6 µM,14.3 µM,30.5 µM,> 27.1 µM,22.8 µM,23.1 µM,9.43 µM,34.7 µM,10.5 µM,33.4 µM,–
SCc1ccc(-c2ccc(CS)cc2)cc1,17.5 µM,10.3 µM,10.1 µM,> 64.3 µM,31.7 µM,33.2 µM,41.2 µM,36.1 µM,15 µM,29.8 µM,22.8 µM,31 µM,5.79 µM,12.4 µM,–,33.5 µM,54.1 µM,45.2 µM,6.47 µM,53 µM
CSc1ccc(/C=C/C(=O)c2nc3ccccc3[nH]2)cc1,76.9 µM,93.6 µM,57 µM,41.2 µM,89.5 µM,> 100 µM,36.2 µM,> 100 µM,45.9 µM,36.8 µM,35.8 µM,57.8 µM,6.56 µM,43.1 µM,> 100 µM,> 100 µM,54.4 µM,67.1 µM,48.4 µM,–
NCc1ccc(O)c(O)c1O,41 µM,61.6 µM,49 µM,> 100 µM,> 67.3 µM,> 100 µM,> 67.3 µM,> 100 µM,32 µM,27.7 µM,32.7 µM,56 µM,62 µM,59.1 µM,–,> 62.5 µM,> 100 µM,> 75.6 µM,34.2 µM,> 80.9 µM
O=c1[nH]c(=S)n(-c2cccc3ccccc23)c(O)c1/C=C1\C=Nc2ccccc21,7.42 µM,11.4 µM,6.87 µM,4.25 µM,3.48 µM,14.5 µM,3.26 µM,5.8 µM,3.81 µM,3.77 µM,6.69 µM,3.12 µM,4.04 µM,5.27 µM,4.63 µM,5.38 µM,5.38 µM,5.51 µM,3.55 µM,–
c1ccc(C2(c3ccccc3)S/C(=C3/SC(c4ccccc4)(c4ccccc4)c4ccccc43)c3ccccc32)cc1,> 100 µM,> 100 µM,> 100 µM,> 100 µM,> 100 µM,> 100 µM,> 100 µM,> 100 µM,> 100 µM,> 100 µM,> 100 µM,> 100 µM,> 100 µM,> 100 µM,> 100 µM,> 100 µM,> 100 µM,> 100 µM,> 100 µM,–
COCn1c(=O)n(C)c(=O)c2c1nc1c(c(=O)n(C)c(=O)n1COC)[n+]2[O-],43.4 µM,77 µM,> 100 µM,82.8 µM,14 µM,36.1 µM,33.7 µM,31.3 µM,27.7 µM,43.9 µM,40.2 µM,19.7 µM,21.3 µM,39.1 µM,76.9 µM,39.2 µM,44.1 µM,54.8 µM,87.1 µM,–
CC(=O)OC(=C(C#N)C#N)c1nccnc1C(=O)O,> 100 µM,> 100 µM,> 100 µM,> 100 µM,> 100 µM,> 100 µM,> 100 µM,> 100 µM,> 100 µM,> 100 µM,> 100 µM,> 100 µM,> 100 µM,> 100 µM,> 100 µM,> 100 µM,> 100 µM,> 100 µM,> 100 µM,–
C=CC(C)CCC(C/C=C(\C)CCCC(C)C)C(=C)CCCC(C)C (centres undefined),> 100 µM,> 100 µM,> 100 µM,> 100 µM,> 100 µM,> 100 µM,> 100 µM,> 100 µM,> 100 µM,> 100 µM,> 100 µM,> 100 µM,> 100 µM,> 100 µM,> 100 µM,> 100 µM,> 100 µM,> 100 µM,> 100 µM,–
CC(C)NC1CCCCC2c3cc(F)ccc3[C@]12O (some centres undefined),> 100 µM,> 100 µM,> 100 µM,> 100 µM,> 100 µM,> 100 µM,> 100 µM,> 100 µM,> 100 µM,> 100 µM,–,> 100 µM,–,> 100 µM,–,> 100 µM,> 100 µM,> 100 µM,–,> 100 µM
Cc1ccc([N+]2=NC(c3ccc([N+](=O)[O-])cc3)=NN(c3ccccc3)C2)cc1,49 µM,> 100 µM,–,> 100 µM,> 100 µM,–,–,> 100 µM,> 100 µM,–,–,> 100 µM,> 100 µM,> 100 µM,–,–,> 100 µM,> 100 µM,–,> 100 µM
